Assay results taken from PubChem BioAssay AID1918956 (Molecular Pharmacology Branch, DTP, NCI, 2023).
Several values for one entry are separate records, joined by “and”; a condition that tells them apart may be missing. Equal entries are not always repeated.

System: OVCAR-5 complex spheroids, viability
Test: Anticancer human tumor OVCAR-5 cell line growth inhibition;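 note: spheroids exposed to agents for seven days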
Conditions: for viability, T/C: stronger effect = lower value; active = viability on the fitted dose curve at most 10% of control; inactive = the rest
Description: Multicellular complex tumor spheroid response to LSD1 Inhibitor Iadademstat in combination with a variety of drugs and investigational agents in selected tumor cell lines
The current study was undertaken to assess response to LSD1 inhibitors in combination with standard-of-care drugs and investigational agents in solid tumor complex spheroid models as well as in the K-562 leukemia. Complex spheroids include a stromal component modeled by human endothelial cells (HUVEC) and fibroblasts modeled by human mesenchymal stem cells (MSCs). The concentration ranges selected for each drug and investigational agent were based upon clinically achievable concentrations if the clinical Cmax of the agent was known.
Compounds. The drugs and investigational agents used in this study are listed on Table 1. All of the agents used, including staurosporine (NSC755774) and gemcitabine (NSC613327), were obtained from the Developmental Therapeutics Program, NCI. FDA-approved anticancer drugs are available from the NCI at http://dtp.nci.nih.gov/branches/dscb/oncology_drugset_explanation.html. Drugs and investigational agents were >95% pure by proton nuclear magnetic resonance (NMR) and liquid chromatography/mass spectrometry (LC/MS). Stock solutions were prepared at 400x in DMSO, stored at -70 degrees C, and diluted in fresh medium prior to their use. The final concentration of DMSO in cell culture wells never exceeded 0.25% (v/v). The FDA-approved anticancer drug set is available from the Developmental Therapeutics Program at https://dtp.cancer.gov/organization/dscb/obtaining/available_plates.htm. All drugs and investigational agents were tested over a range starting from a high concentration at or near the clinical Cmax and decreasing in half-log increments. If the clinical Cmax for an agent had not been determined, the highest concentration tested was 10 microM.
Cell Lines. The patient-derived cancer cell (PDC) lines: 292921-168-R-J2-PDC, K24384-001-R-PDC, and 521955-158-R2-J5-PDC pancreatic carcinomas, 556581-035-R-J1 ovarian carcinoma, 324938-238-R-J1-PDC, 855422-203-R-J1-PDC and 883617-216-R-J1-PDC urothelial bladder carcinomas, 743489-274-T-PDC renal cell carcinoma, 138582-R-J1 Merkel cell tumor, K60290-347-R-J1 and K57222-313-R-J1-PDC glioblastomas, 653999-131-R-J2-PDC, LG0703-F948-PDC, and 349418-098-R-PDC non-small cell lung carcinomas, 885512-296-R-J2-PDC, 171881-019-R-J1-PDC breast carcinomas and 186277-243-T-J2-PDC and 233499-124-R-J2-PDC colon carcinomas were obtained from the NCI Patient-Derived Models Repository (PDMR, https://pdmr.cancer.gov). The established cell lines NCI/ADR-RES (RRID:CVCL_14520 and OVCAR-5 (RRID:CVCL_1628) ovarian carcinomas, 786-O (RRID:CVCL_1051) and A498 […] renal cell carcinoma, NCI-H211 (ATCC, cat. CRL-5824; RRID:CVCL_1529), NCI-H196 (ATCC, cat. CRL-5823, RRID:CVCL_1509), SW 1271 (ATCC, cat. CRL-2177, RRID:CVCL_1716) and NCI-H1876 (ATCC, cat. CRL-5902, RRID:CVCL_1503) small cell lung carcinomas, MDA-MB-231 (RRID:CVCL_0062) and MDA-MB-468 (RRID:CVCL_0419)breast carcinomas (10-12). Pooled donor human umbilical vein endothelial cells (HUVEC, Lonza, cat. CC-2519) and human mesenchymal stem cells (hMSC, Lonza, cat. PT-2501) were purchased from Lonza (Walkersville, MD).
Cell Culture. All cells were maintained in an incubator at 37 degrees C and 5% CO2 with 95% humidity. The PDC lines were cultured according to standard operating procedures established by the NCI PDMR (https://pdmr.cancer.gov). Briefly all PDCs were thawed and cultured in Matrigel-coated flasks prepared with a working solution of 1X Ham's F-12 nutrient mix, without supplementation (Invitrogen, Waltham, MA, cat. 11765054), 100 U/mL penicillin-streptomycin (Invitrogen, cat. 15140122), and 2.5% Matrigel (Corning Inc., Corning, NY, cat. 354248) for the first three passages. […]

CC1COCCN1c1cc(C2(S(C)(=N)=O)CC2)nc(-c2ccnc3[nH]ccc23)n1 (configuration not stated) + NC1CC1c1ccc(-c2cccc(O)c2)cc1
697 nM: IC50 (curve of first compound, second compound 10 µM)
862 nM: IC50 (curve of first compound, second compound 0.316 µM)
792 nM: IC50 (curve of first compound, second compound 1 µM)
inactive: viability, T/C (second compound 0.1 µM, first compound 0.0316 µM) 80.6% | viability, T/C (second compound 0.1 µM, first compound 0.1 µM) 78.3% | viability, T/C (second compound 0.1 µM, first compound 0.316 µM) 72.8% | viability, T/C (second compound 0.1 µM, first compound 1 µM) 45.9% | viability, T/C (second compound 0.1 µM, first compound 3.16 µM) 32% | viability, T/C (second compound 0.1 µM, first compound 10 µM) 26.7% | viability, T/C (second compound 0.316 µM, first compound 0.0316 µM) 89.2% | viability, T/C (second compound 0.316 µM, first compound 0.1 µM) 95.6% | viability, T/C (second compound 0.316 µM, first compound 0.316 µM) 80.6% | viability, T/C (second compound 0.316 µM, first compound 1 µM) 44.9% | viability, T/C (second compound 0.316 µM, first compound 3.16 µM) 33% | viability, T/C (second compound 0.316 µM, first compound 10 µM) 25.6% | viability, T/C (second compound 1 µM, first compound 0.0316 µM) 71.4% | viability, T/C (second compound 1 µM, first compound 0.1 µM) 75.4% | viability, T/C (second compound 1 µM, first compound 0.316 µM) 74.2% | viability, T/C (second compound 1 µM, first compound 1 µM) 44% | viability, T/C (second compound 1 µM, first compound 3.16 µM) 29.9% | viability, T/C (second compound 1 µM, first compound 10 µM) 25% | viability, T/C (second compound 3.16 µM, first compound 0.0316 µM) 88.8% | viability, T/C (second compound 3.16 µM, first compound 0.1 µM) 77.6% | viability, T/C (second compound 3.16 µM, first compound 0.316 µM) 62.1% | viability, T/C (second compound 3.16 µM, first compound 1 µM) 42.9% | viability, T/C (second compound 3.16 µM, first compound 3.16 µM) 32% | viability, T/C (second compound 3.16 µM, first compound 10 µM) 24.8% | viability, T/C (second compound 10 µM, first compound 0.0316 µM) 76.9% | viability, T/C (second compound 10 µM, first compound 0.1 µM) 78.6% | viability, T/C (second compound 10 µM, first compound 0.316 µM) 65.7% | viability, T/C (second compound 10 µM, first compound 1 µM) 42.3% | viability, T/C (second compound 10 µM, first compound 3.16 µM) 32.3% | viability, T/C (second compound 10 µM, first compound 10 µM) 27%
858 nM: IC50 (curve of first compound, second compound 0.1 µM)
663 nM: IC50 (curve of first compound, second compound 3.16 µM)

Nc1ncn(C2CC(O)C(CO)S2)c(=O)n1 (configuration not stated)
> 300 nM: IC50 (curve of compound)
inactive: viability, T/C (compound 0.000949 µM) 107% and 104% | viability, T/C (compound 0.003 µM) 104% and 109% | viability, T/C (compound 0.00949 µM) 104% | viability, T/C (compound 0.03 µM) 97.1% and 94.2% | viability, T/C (compound 0.0949 µM) 82.2% and 85.6% | viability, T/C (compound 0.3 µM) 78.2% and 72.3%
